These results are taken from patent US20260132118A1, “SALT FORMS OF R-MDMA AND METHODS USING THE SAME” (EmpathBio, Inc., priority 2022, published 2026).

Several values for one entry are separate records, joined by “and”; a condition that tells them apart may be missing. Equal entries are not always repeated.

For data set [1] the following is noted: background; cited from earlier work.
Data set [2] in a line: Physical stability testing: stressing solids at elevated relative humidity or storage, monitored by XRPD. It is filed as physicochemical.
Data set [3] in a line: Approximate aqueous solubility by aliquot addition. The settings on record: for Solubility: approximate aqueous solubility; for Observations (solubility experiment): aqueous.
From the text: The small sample sizes, aliquot volumes, and kinetic nature of the solubility measurements contribute a degree of uncertainty to the reported values.
A short description of data set [4]: Dynamic Vapor Sorption (DVS). It is filed as physicochemical. The settings on record: for DVS weight loss: desorption 95-6% RH; for DVS weight loss / DVS weight gain: 10% RH increments, nitrogen purge; for Solid form post-DVS (XRPD): post-DVS solids; for DVS weight gain: sorption 5-95% RH. The procedure: DVS data was collected on a Surface Measurement System DVS Intrinsic instrument. Samples were not dried prior to analysis. […] The equilibrium criterion used for analysis was less than 0.0100% weight change in 5 minutes with a maximum equilibration time of 3 hours. Data was not corrected for the initial moisture content of the samples.

Setting [5] is: listed as O-methyl Mandelate Form A.

For the compound `CNC(C)Cc1ccc2c(c1)OCO2` (centres unmarked) [MDMA free base, 3,4-Methylenedioxymethamphetamine], the “Solubility in water (in words)” value in data set [1] is “insoluble in water”.

For `CNC(C)Cc1ccc2c(c1)OCO2.Cl` (centres unmarked) [MDMA hydrochloride salt], in data set [1], the “Solubility in water (in words)” value was “soluble in water”.

For `CN[C@H](C)Cc1ccc2c(c1)OCO2.O=[N+]([O-])O` [Nitrate Form A], in data set [2] (13 days), the “Physical stability upon stressing at ~90% RH” value is reported as “remained physically stable”. In data set [3], the Solubility is 3 ± 1 mg/mL and 3 mg/mL; the “Observations (solubility experiment)” value is recorded as “clear solution”.

For the compound `CN[C@H](C)Cc1ccc2c(c1)OCO2.COC(C(=O)O)c1ccccc1` [O-Methyl Mandelate Form A], the “DVS desorption behaviour / hysteresis” value in data set [4] (5% to 95% RH) is reported as “all mass gained in sorption was lost on desorption with minimal hysteresis”. Besides, the “Hygroscopicity (in words)” value in data set [4] (DVS isotherm) is “low kinetic hygroscopicity”. Besides, the “Kinetic hygroscopicity (sorption/desorption)” value in data set [4] (between 5% and 95% RH) amounted to 0.2%. In addition, in data set [4], the DVS weight loss is reported as 0.21±0.02%; the “Solid form post-DVS (XRPD)” value is “remained unchanged”; the DVS weight gain was 0.18±0.02% and 0.18%. Further, in data set [4] (setting [5]), the DVS weight loss turned out to be 0.21%, the “Solid form post-DVS (XRPD)” value is given as “O-Methyl Mandelate Form A” and the DVS weight gain came to 0.18%. In addition, the “Physical stability upon stressing at ~90% RH” value in data set [2] (8 days) was “remained physically stable”. Besides, in data set [3], the Solubility was 26 ± 1 mg/mL and ~26 mg/mL; the “Observations (solubility experiment)” value is recorded as “clear solution”.
